Test results as given in US8178570B2, “Tie-2 modulators and methods of use” (Exelixis, Inc., priority 2003, dated 2012).

What follows are molecules tested against Tie-2 (Homo sapiens, UniProt Q02763) (assay: Tie-2 tyrosine kinase activity: kinase-dependent ATP consumption (pEY substrate, luciferase/luciferin chemiluminescence) or 33P-ATP incorporation into substrate). Conditions: Tie-2 (human enzyme) inhibition, Table 2, class symbols A-D.
Type: biochemical
Method: One measure of inhibition is Ki. […] The Ki for a compound is determined from the IC50 based on three assumptions. First, only one compound molecule binds to the enzyme and there is no cooperativity. […] Third, the enzymatic rate of the enzyme-inhibitor complex is zero. The rate (i.e., compound concentration) data are fitted to the equation:
[formula] where V is the observed rate, Vmax, is the rate of the free enzyme, I0 is the inhibitor concentration, E0 is the enzyme concentration, and Kd is the dissociation constant of the enzyme-inhibitor complex.
Tyrosine kinase activity is determined by 1) measurement of kinase-dependent ATP consumption by in the presence of a generic substrate such as polyglutamine, tyrosine (pEY), by luciferase/luciferin-mediated chemiluminescence or; 2) incorporation of radioactive phosphate derived from ^33P-ATP into a generic substrate which has been absorbed onto the well surface of polystyrene microtiter plates. Phosphorylated substrate products are quantified by scintillation spectrometry.
Inhibition is indicated as IC50 with following key: A=IC50 less than 50 nM, B=IC50 greater than 50 nM, but less than or equal to 1000 nM, C=IC50 greater than 1000 nM, but less than 10,000 nM, and D=IC50 10,000 nM or greater. The abbreviation for human enzyme, Tie-2, is defined as tyrosine kinase with immunoglobulin and EGF repeats.

Tie-2, sequence (Q02763 23-1124): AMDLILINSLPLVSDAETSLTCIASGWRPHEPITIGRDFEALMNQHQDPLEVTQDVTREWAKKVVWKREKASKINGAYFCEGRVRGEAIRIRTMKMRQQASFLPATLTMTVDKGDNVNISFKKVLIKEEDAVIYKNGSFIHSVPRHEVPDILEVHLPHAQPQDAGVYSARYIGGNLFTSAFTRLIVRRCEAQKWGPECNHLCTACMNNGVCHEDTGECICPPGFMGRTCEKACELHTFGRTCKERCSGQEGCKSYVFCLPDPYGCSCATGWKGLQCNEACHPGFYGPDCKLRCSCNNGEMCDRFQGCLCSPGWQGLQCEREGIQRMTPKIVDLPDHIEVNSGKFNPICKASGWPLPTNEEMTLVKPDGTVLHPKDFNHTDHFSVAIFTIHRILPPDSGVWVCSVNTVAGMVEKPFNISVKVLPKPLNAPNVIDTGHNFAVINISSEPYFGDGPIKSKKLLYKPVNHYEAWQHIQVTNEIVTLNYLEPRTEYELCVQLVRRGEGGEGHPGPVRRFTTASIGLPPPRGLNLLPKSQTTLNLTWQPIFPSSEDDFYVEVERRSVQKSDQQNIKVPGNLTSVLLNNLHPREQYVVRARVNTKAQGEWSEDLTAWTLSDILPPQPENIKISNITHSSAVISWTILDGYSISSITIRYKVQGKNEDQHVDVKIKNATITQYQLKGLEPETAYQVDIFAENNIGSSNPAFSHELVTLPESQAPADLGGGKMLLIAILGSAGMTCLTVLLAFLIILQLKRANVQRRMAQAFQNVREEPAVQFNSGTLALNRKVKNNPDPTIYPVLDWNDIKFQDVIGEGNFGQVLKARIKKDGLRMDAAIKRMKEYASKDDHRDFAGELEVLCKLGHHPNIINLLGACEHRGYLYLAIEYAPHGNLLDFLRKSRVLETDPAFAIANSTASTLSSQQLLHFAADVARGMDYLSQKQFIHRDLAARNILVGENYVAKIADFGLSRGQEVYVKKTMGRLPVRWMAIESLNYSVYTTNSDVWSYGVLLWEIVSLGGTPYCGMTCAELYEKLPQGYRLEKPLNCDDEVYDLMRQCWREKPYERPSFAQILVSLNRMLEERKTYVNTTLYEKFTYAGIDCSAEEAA

Row | IC50 [µM] | Structure (SMILES)
1 | < 0.05 | O=C(Cc1cccc2ccccc12)N(CCn1nc(-c2ccncc2)nc1-c1ccc(O)c(Cl)c1)C1CCCC1 [Entry 1, N-{2-[5-(3-chloro-4-hydroxyphenyl)-3-pyridin-4-yl-1H-1,2,4-triazol-1-yl]ethyl}-N-cyclopentyl-2-naphthalen-1-ylacetamide]
2 | ≥ 10 | CCOC(=O)Cn1nc(-c2ccncc2)nc1-c1ccc(OC)c(Cl)c1 [Entry 2, ethyl {5-[3-chloro-4-(methyloxy)phenyl]-3-pyridin-4-yl-1H-1,2,4-triazol-1-yl}acetate]
3 | ≥ 10 | COc1ccc(-c2nc(-c3ccncc3)nn2CC(=O)NC2CCCC2)cc1Cl [Entry 3, 2-{5-[3-chloro-4-(methyloxy)phenyl]-3-pyridin-4-yl-1H-1,2,4-triazol-1-yl}-N-cyclopentylacetamide]
4 | ≥ 10 | CCOC(=O)Cn1nc(-c2ccc(OC)c(Cl)c2)nc1-c1ccncc1 [Entry 4, ethyl {3-[3-chloro-4-(methyloxy)phenyl]-5-pyridin-4-yl-1H-1,2,4-triazol-1-yl}acetate]
5 | ≥ 10 | COc1ccc(-c2nc(-c3ccncc3)n(CC(=O)NC3CCCC3)n2)cc1Cl [Entry 5, 2-{3-[3-chloro-4-(methyloxy)phenyl]-5-pyridin-4-yl-1H-1,2,4-triazol-1-yl}-N-cyclopentylacetamide]
6 | ≥ 10 | COC(=O)CCn1nc(-c2ccncc2)nc1-c1ccc(OC)c(Cl)c1 [Entry 6, methyl 3-{5-[3-chloro-4-(methyloxy)phenyl]-3-pyridin-4-yl-1H-1,2,4-triazol-1-yl}propanoate]
7 | ≥ 10 | COC(=O)CCn1nc(-c2ccc(OC)c(Cl)c2)nc1-c1ccncc1 [Entry 7, methyl 3-{3-[3-chloro-4-(methyloxy)phenyl]-5-pyridin-4-yl-1H-1,2,4-triazol-1-yl}propanoate]
8 | ≥ 10 | COc1ccc(-c2nc(-c3ccncc3)nn2CCCN(C(=O)Cc2cccc3ccccc23)C2CCCC2)cc1Cl [Entry 8, N-(3-{5-[3-chloro-4-(methyloxy)phenyl]-3-pyridin-4-yl-1H-1,2,4-triazol-1-yl}propyl)-N-cyclopentyl-2-naphthalen-1-ylacetamide]
9 | ≥ 10 | COc1ccc(-c2nc(-c3ccncc3)n(CCCN(C(=O)Cc3cccc4ccccc34)C3CCCC3)n2)cc1Cl [Entry 9, N-(3-{3-[3-chloro-4-(methyloxy)phenyl]-5-pyridin-4-yl-1H-1,2,4-triazol-1-yl}propyl)-N-cyclopentyl-2-naphthalen-1-ylacetamide]
10 | < 0.05 | COc1ccc(-c2nc(-c3ccncc3)nn2CCN(C(=O)Cc2cccc3ccccc23)C2CCCC2)cc1Cl [Entry 10, N-(2-{5-[3-chloro-4-(methyloxy)phenyl]-3-pyridin-4-yl-1H-1,2,4-triazol-1-yl}ethyl)-N-cyclopentyl-2-naphthalen-1-ylacetamide]
11 | 0.05 to 1 | O=C(Cc1cccc2ccccc12)N(CCn1nc(-c2ccc(O)c(Cl)c2)nc1-c1ccncc1)C1CCCC1 [Entry 11, N-{2-[3-(3-chloro-4-hydroxyphenyl)-5-pyridin-4-yl-1H-1,2,4-triazol-1-yl]ethyl}-N-cyclopentyl-2-naphthalen-1-ylacetamide]
12 | ≥ 10 | COc1ccc(-c2nc(-c3cccnc3)n(CC(=O)NC3CCCC3)n2)cc1Cl [Entry 12, 2-{3-[3-chloro-4-(methyloxy)phenyl]-5-pyridin-3-yl-1H-1,2,4-triazol-1-yl}-N-cyclopentylacetamide]
13 | ≥ 10 | COc1ccc(-c2nc(-c3cccnc3)nn2CCN(C(=O)Cc2cccc3ccccc23)C2CCCC2)cc1Cl [Entry 13, N-(2-{5-[3-chloro-4-(methyloxy)phenyl]-3-pyridin-3-yl-1H-1,2,4-triazol-1-yl}ethyl)-N-cyclopentyl-2-naphthalen-1-ylacetamide]
14 | ≥ 10 | CCOC(=O)Cn1nc(-c2ccncc2)nc1-c1ccc([N+](=O)[O-])cc1 [Entry 14, ethyl [5-(4-nitrophenyl)-3-pyridin-4-yl-1H-1,2,4-triazol-1-yl]acetate]
15 | ≥ 10 | CCOC(=O)Cn1nc(-c2ccncc2)nc1-c1cc(Cl)cc(Cl)c1 [Entry 15, ethyl [5-(3,5-dichlorophenyl)-3-pyridin-4-yl-1H-1,2,4-triazol-1-yl]acetate]
16 | ≥ 10 | CCOC(=O)Cn1nc(-c2cc(Cl)cc(Cl)c2)nc1-c1ccncc1 [Entry 16, ethyl [3-(3,5-dichlorophenyl)-5-pyridin-4-yl-1H-1,2,4-triazol-1-yl]acetate]

Row | IC50 [µM] | Structure (SMILES)
17 | < 0.05 | O=C(Cc1cccc2ccccc12)N(CCn1nc(-c2ccncc2)nc1-c1ccco1)C1CCCC1 [Entry 17, N-cyclopentyl-N-[2-(5-furan-2-yl-3-pyridin-4-yl-1H-1,2,4-triazol-1-yl)ethyl]-2-naphthalen-1-ylacetamide]
18 | 0.05 to 1 | O=C(Cc1cccc2ccccc12)N(CCn1nc(-c2ccco2)nc1-c1ccncc1)C1CCCC1 [Entry 18, N-cyclopentyl-N-[2-(3-furan-2-yl-5-pyridin-4-yl-1H-1,2,4-triazol-1-yl)ethyl]-2-naphthalen-1-ylacetamide]
19 | 0.05 to 1 | O=C(Cc1cccc2ccccc12)N(CCn1nc(-c2cccs2)nc1-c1ccncc1)C1CCCC1 [Entry 19, N-cyclopentyl-2-naphthalen-1-yl-N-{2-[5-pyridin-4-yl-3-(2-thienyl)-1H-1,2,4-triazol-1-yl]ethyl}acetamide]
20 | 1 to 10 | COc1ccc(-c2nc(-c3ccncc3)nn2CCN(C(=O)c2cccc3ccccc23)C2CCCC2)cc1Cl [Entry 20, N-(2-{5-[3-chloro-4-(methyloxy)phenyl]-3-pyridin-4-yl-1H-1,2,4-triazol-1-yl}ethyl)-N-cyclopentylnaphthalene-1-carboxamide]
21 | ≥ 10 | COc1ccc(-c2nc(-c3ccncc3)nn2CCN(C(=O)c2ccc3ccccc3c2)C2CCCC2)cc1Cl [Entry 21, N-(2-{5-[3-chloro-4-(methyloxy)phenyl]-3-pyridin-4-yl-1H-1,2,4-triazol-1-yl}ethyl)-N-cyclopentylnaphthalene-2-carboxamide]
22 | < 0.05 | COc1cccc(-c2nc(-c3ccncc3)nn2CCN(C(=O)Cc2cccc3ccccc23)C2CCCC2)c1 [Entry 22, N-cyclopentyl-N-(2-{5-[3-(methyloxy)phenyl]-3-pyridin-4-yl-1H-1,2,4-triazol-1-yl}ethyl)-2-naphthalen-1-ylacetamide]
23 | 0.05 to 1 | COc1cccc(-c2nc(-c3ccncc3)n(CCN(C(=O)Cc3cccc4ccccc34)C3CCCC3)n2)c1 [Entry 23, N-cyclopentyl-N-(2-{3-[3-(methyloxy)phenyl]-5-pyridin-4-yl-1H-1,2,4-triazol-1-yl}ethyl)-2-naphthalen-1-ylacetamide]
24 | 1 to 10 | COc1ccc(-c2nc(-c3ccncc3)nn2CCCCN(C(=O)Cc2cccc3ccccc23)C2CCCC2)cc1Cl [Entry 24, N-(4-{5-[3-chloro-4-(methyloxy)phenyl]-3-pyridin-4-yl-1H-1,2,4-triazol-1-yl}butyl)-N-cyclopentyl-2-naphthalen-1-ylacetamide]
25 | ≥ 10 | COc1ccc(-c2nc(-c3ccncc3)n(CCCCN(C(=O)Cc3cccc4ccccc34)C3CCCC3)n2)cc1Cl [Entry 25, N-(4-{3-[3-chloro-4-(methyloxy)phenyl]-5-pyridin-4-yl-1H-1,2,4-triazol-1-yl}butyl)-N-cyclopentyl-2-naphthalen-1-ylacetamide]
26 | ≥ 10 | COc1ccc(-c2nc(-c3ccncc3)nn2CCN(C(=O)c2ccccc2)C2CCCC2)cc1Cl [Entry 26, N-(2-{5-[3-chloro-4-(methyloxy)phenyl]-3-pyridin-4-yl-1H-1,2,4-triazol-1-yl}ethyl)-N-cyclopentylbenzamide]
27 | ≥ 10 | COc1ccc(-c2nc(-c3ccncc3)n(CCN(C(=O)c3ccccc3)C3CCCC3)n2)cc1Cl [Entry 27, N-(2-{3-[3-chloro-4-(methyloxy)phenyl]-5-pyridin-4-yl-1H-1,2,4-triazol-1-yl}ethyl)-N-cyclopentylbenzamide]
28 | ≥ 10 | COc1ccc(-c2nc(-c3ccncc3)nn2CCN(C(=O)c2ccnc3ccccc23)C2CCCC2)cc1Cl [Entry 28, N-(2-{5-[3-chloro-4-(methyloxy)phenyl]-3-pyridin-4-yl-1H-1,2,4-triazol-1-yl}ethyl)-N-cyclopentylquinoline-4-carboxamide]
29 | < 0.05 | COc1ccc(-c2nc(-c3ccncc3)nn2CCN(C(=O)Nc2cccc3ccccc23)C2CCCC2)cc1Cl [Entry 29, N-(2-{5-[3-chloro-4-(methyloxy)phenyl]-3-pyridin-4-yl-1H-1,2,4-triazol-1-yl}ethyl)-N-cyclopentyl-N′-naphthalen-1-ylurea]
30 | ≥ 10 | COc1ccc(-c2nc(-c3ccncc3)nn2CCN(C(=O)Nc2ccccc2)C2CCCC2)cc1Cl [Entry 30, N-(2-{5-[3-chloro-4-(methyloxy)phenyl]-3-pyridin-4-yl-1H-1,2,4-triazol-1-yl}ethyl)-N-cyclopentyl-N′-phenylurea]
31 | 1 to 10 | COc1ccc(-c2nc(-c3ccncc3)nn2CCN(C(=O)Cc2ccccc2)C2CCCC2)cc1Cl [Entry 31, N-(2-{5-[3-chloro-4-(methyloxy)phenyl]-3-pyridin-4-yl-1H-1,2,4-triazol-1-yl}ethyl)-N-cyclopentyl-2-phenylacetamide]
32 | ≥ 10 | COc1ccc(-c2nc(-c3ccccc3)nn2CCN(C(=O)Cc2cccc3ccccc23)C2CCCC2)cc1Cl [Entry 32, N-(2-{5-[3-chloro-4-(methyloxy)phenyl]-3-phenyl-1H-1,2,4-triazol-1-yl}ethyl)-N-cyclopentyl-2-naphthalen-1-ylacetamide]
